System: HuH7 cells
Assay: MTT antiproliferative (growth inhibition) assay on HuH7 cells
Format: cell-based, human
Conditions: Homo sapiens, Huh-7, MTT, 72 h incubation, mean and SD of 3 or more independent determinations (Tables 1-8), read-out: IC 50
Excerpt: MTT was purchased from DUCHEFA Biochemie ([…]). Sunitinib, and sodium dodecyl sulfate, bovine serum albuminwere obtained from Sigma Aldrich (Singapore). Sorafenib was purchase from Ontario Chem. Fetal bovine serum (FBS) was obtained from Invitrogen. Human hepatocellular carcinoma cells (HuH-7 and Hep G2), and human diploid fibroblast strain (IMR 90). HuH7 was obtained as gifts from Dr Ho Han Kiat, Department of Pharmacy, NUS. IMR90 and Hep G2 were purchased from American Type Culture Collection (ATCC). HuH-7 cells were cultured in DMEM (Dulbecco's Modified Eagle Medium, high glucose) with 10% v/v fetal bovine serum (FBS), 100 mg/L penicillin G and 100 mg/L streptomycin. IMR 90 cell were cultured in EMEM (Eagle's Minimum Essential Medium), with 10% v/v FBS and 100 mg/L penicillin G and 100 mg/L streptomycin. The cells were sub-cultured when HuH7 or Hep G2 reached a density of 70-80×10^5 cell/T75 flask, and IMR 90 reached 20×10^5 cell/T75 flask. Cells were used within 2-10 passages for viability experiments.
The anti-proliferative activity of the test compounds were determined by the MTT assay. An aliquot (200 μL, 3×10^4 cells/mL for HuH7, 3.75×10^4 cells/mL for Hep G2, and 2×10^4 cells/mL for IMR 90) of medium was added to each well of the microtitre plate. […] The existing medium was removed from each well and replaced by fresh medium (200 μL) containing a known concentration of test compound. The final concentration of DMSO in each well was maintained at 0.5% v/v. (1% v/v was also utilized if the compounds were not soluble) The test compounds were incubated with the cells for another 72 h at 37 deg C., 5% CO2. The medium was then removed from the well and replaced with FBS free medium (200 μL) and MTT (50 μL of 2 mg/mL solution in phosphate buffer saline, pH 7.4). The phosphate buffer saline comprises 10 mM of potassium phosphate and 137 mM sodium chloride. After incubation (3 h) at 37 deg C., 5% CO2, the supernatant was removed and a solution of 200 μL DMSO and 25 μL Sorenson buffer (0.1 M glycine, 0.1 M sodium chloride, adjusted to pH 10.5 with 0.1 M sodium hydroxide) was added to dissolve the formazan crystals in each well. Vehicle control were cells grown in 1% v/v DMSO/Medium for 72 h, 37 deg C., 5% CO2 while blank controls were wells that contained only 200 μL DMSO and 25 μL Sorenson buffer. Absorbances were measured at 570 nm on a microplate reader (Tecan, Infinite 200). The viability of cells at a given concentration of test compound was determined from the expression:
[formula] where abs_compound=absorbance of wells containing cells and test compound, abs_vehicle (Not the same as above. Change to abs_vehicle)=absorbance of vehicle control and abs_blank=absorbance of blank control.
Each concentration of test compound was evaluated at least 3 times on separate occasions, and two different stock solution were used. The IC50 value (concentration that inhibited 50% of cell growth) was determined from the sigmoidal curve obtained by plotting percentage viability versus logarithmic concentration of test compound using GraphPad Prism 5 (San Diego, USA).

Row | Compound | IC50 [µM]
1 | O=C1Nc2ccc(F)c(F)c2C1=Cc1ccccc1C(F)(F)F (mixture of isomers) [Compound 6-5, (E/Z)-4,5-Difluoro-3-(2-trifluoromethyl-benzylidene)-1,3-dihydro-indol-2-one] | > 30
2 | O=C1Nc2cc(Cl)ccc2/C1=C\c1ccccc1 [Compound 1-1, (E)-3-Benzylidene-6-chloro-1,3-dihydro-indol-2-one] | 17.5 ± 3.54
3 | O=C1Nc2cc(Cl)ccc2/C1=C\c1cccc(F)c1 [Compound 1-3, (E)-6-Chloro-3-(3-fluoro-benzylidene)-1,3-dihydro-indol-2-one] | 10 ± 0.87
4 | O=C1Nc2cc(Cl)ccc2/C1=C\c1ccc(F)cc1 [Compound 1-4, (E)-6-Chloro-3-(4-fluoro-benzylidene)-1,3-dihydro-indol-2-one] | 12.9 ± 0.95
5 | COc1ccccc1/C=C1/C(=O)Nc2cc(Cl)ccc21 [Compound 1-6, (E)-6-Chloro-3-(2-methoxy-benzylidene)-1,3-dihydro-indol-2-one] | > 30
6 | O=C1Nc2cc(Cl)ccc2/C1=C\c1cccc(OC(F)(F)F)c1 [Compound 1-14, (E)-6-Chloro-3-(3-trifluoromethoxyl-benzylidene)-1,3-dihydro-indol-2-one] | 5.06 ± 0.74
7 | NS(=O)(=O)c1cccc(/C=C2/C(=O)Nc3cc(Cl)ccc32)c1 [Compound 1-17, (E) 3-(6-Chloro-2-oxo-1,2-dihydro-indol-3-ylidenemethyl)-benzene-sulfonamide] | 3.41 ± 0.38
8 | N#Cc1cccc(/C=C2/C(=O)Nc3cc(Cl)ccc32)c1 [Compound 1-19, (E) 3-(6-Chloro-2-oxo-1,2-dihydro-indol-3-ylidenemethyl)-benzonitrile] | 7.36 ± 0.3
9 | O=C1Nc2ccc(Cl)cc2/C1=C\c1ccccc1 [Compound 2-1, (E)-3-Benzylidene-5-chloro-1,3-dihydro-indol-2-one] | 21.3 ± 2.22
10 | O=C1Nc2ccc(Cl)cc2/C1=C\c1ccccc1F [Compound 2-2, (E)-5-Chloro-3-(2-fluoro-benzylidene)-1,3-dihydro-indol-2-one] | > 30
11 | COc1cccc(C=C2C(=O)Nc3ccc(Cl)cc32)c1 [Compound 2-5, (E)-5-Chloro-3-(3-methoxybenzylidene)-dihydro-indol-2-one] | > 30
12 | O=C1Nc2ccc(Cl)cc2/C1=C\c1ccccc1C(F)(F)F [Compound 2-6, (E)-5-Chloro-3-(2-trifluoromethylbenzylidene)-1,3-dihydro-indol-2-one] | > 30
13 | O=C1Nc2ccc(Cl)cc2/C1=C\c1ccc(C(F)(F)F)cc1 [Compound 2-8, (E)-5-Chloro-3-(4-trifluoromethylbenzylidene)-1,3-dihydro-indol-2-one] | 7.92 ± 1.45
14 | O=C1Nc2ccc(Cl)cc2/C1=C\c1ccc(F)c(F)c1 [Compound 2-9, (E)-5-Chloro-3-(3,4-difluoro-benzylidene)-1,3-dihydro-indol-2-one] | 11.4 ± 1.45
15 | O=C1Nc2ccc(Cl)cc2/C1=C\c1cccc(OC(F)(F)F)c1 [Compound 2-10, (E)-5-Chloro-3-(3-trifluoromethoxyl-benzylidene)-1,3-dihydro-indol-2-one] | 3.83 ± 0.25
16 | CS(=O)(=O)c1cccc(/C=C2/C(=O)Nc3ccc(Cl)cc32)c1 [Compound 2-11, (E)-5-Chloro-3-(3-methanesulfonyl-benzylidene)-1,3-dihydro-indol-2-one] | 6.53 ± 0.51
17 | NS(=O)(=O)c1cccc(C=C2C(=O)Nc3ccc(Cl)cc32)c1 [Compound 2-12, E/Z 3-(5-Chloro-2-oxo-1,2-dihydro-indol-3-ylidenemethyl)-benzenesulfonamide] | 9.66 ± 1.59
18 | O=C1Nc2cc(F)ccc2/C1=C\c1ccccc1C(F)(F)F [Compound 3-5, (E)-6-Fluoro-3-(2-trifluoromethyl-benzylidene)-1,3-dihydro-indol-2-one] | > 30
19 | O=C1Nc2cc(F)ccc2/C1=C\c1cccc(C(F)(F)F)c1 [Compound 3-6, (E)-6-Fluoro-3-(3-trifluoromethyl-benzylidene)-1,3-dihydro-indol-2-one, reference compound] | 1.41 ± 0.13

Now from value to molecule:

Row | IC50 [µM] | Compound
20 | 13.9 ± 2.03 | CS(=O)(=O)c1cccc(C=C2C(=O)Nc3ccc(F)c(F)c32)c1 (mixture of isomers) [Compound 6-9, (E/Z)-4,5-Difluoro-3-(3-methanesulfonylbenzylidene)-1,3-dihydro-indol-2-one]
21 | 11 ± 0.28 | Cc1cccc(/C=C2/C(=O)Nc3cc(Cl)ccc32)c1 [Compound 1-5, (E)-6-Chloro-3-(3-methyl-benzylidene)-1,3-dihydro-indol-2-one]
22 | 12.2 ± 0.64 | COc1cccc(/C=C2/C(=O)Nc3cc(Cl)ccc32)c1 [Compound 1-7, (E)-6-Chloro-3-(3-methoxy-benzylidene)-1,3-dihydro-indol-2-one]
23 | > 30 | COc1ccc(/C=C2/C(=O)Nc3cc(Cl)ccc32)cc1 [Compound 1-8, (E)-6-Chloro-3-(4-methoxy-benzylidene)-1,3-dihydro-indol-2-one]
24 | 24.1 ± 5.29 | O=C1Nc2cc(Cl)ccc2/C1=C\c1ccccc1C(F)(F)F [Compound 1-9, (E)-6-Chloro-3-(2-trifluoromethyl-benzylidene)-1,3-dihydro-indol-2-one]
25 | 11 ± 1.78 | O=C1Nc2cc(Cl)ccc2/C1=C\c1ccc(C(F)(F)F)cc1 [Compound 1-11, (E)-6-Chloro-3-(4-trifluoromethyl-benzylidene)-1,3-dihydro-indol-2-one]
26 | 16.7 ± 3.4 | O=C1Nc2cc(Cl)ccc2C1=Cc1ccc(F)c(F)c1 [Compound 1-12, (E)-6-Chloro-3-(3,4-difluoro-benzylidene) 1,3-dihydro-indolin-2-one]
27 | 10.1 ± 1.73 | O=C1Nc2cc(Cl)ccc2C1=Cc1ccc(OC(F)(F)F)cc1 [Compound 1-15, (E)-6-Chloro-3-(4-trifluoromethoxyl-benzylidene)-1,3-dihydro-indol-20-one]
28 | 10.8 ± 3.72 | CS(=O)(=O)c1cccc(/C=C2/C(=O)Nc3cc(Cl)ccc32)c1 [Compound 1-16, (E)-6-Chloro-3-(3-methanesulfonyl-benzylidene)-1,3-dihydro-indol-2-one]
29 | 4.87 ± 0.36 | CN(C)S(=O)(=O)c1cccc(/C=C2/C(=O)Nc3cc(Cl)ccc32)c1 [Compound 1-20, (E)-3-(6-Chloro-2-oxo-1,2-dihydro-indol-3-ylidenemethyl)-N,N-dimethyl-benzenesulfonamide]
30 | 15.1 ± 2.91 | O=C1Nc2ccc(Cl)cc2/C1=C\c1cccc(F)c1 [Compound 2-3, (E)-5-Chloro-3-(3-fluoro-benzylidene)-1,3-dihydro-indol-2-one]
31 | 12.7 ± 2.82 | O=C1Nc2ccc(Cl)cc2/C1=C\c1ccc(F)cc1 [Compound 2-4, (E)-5-Chloro-3-(4-fluoro-benzylidene)-1,3-dihydro-indol-2-one]
32 | 10.4 ± 1.99 | N#Cc1cccc(/C=C2/C(=O)Nc3ccc(Cl)cc32)c1 [Compound 2-13, (E) 3-(5-Chloro-2-oxo-1,2-dihydro-indol-3-ylidenemethyl)-benzonitrile]
33 | 3.13 ± 0.07 | CNS(=O)(=O)c1cccc(/C=C2/C(=O)Nc3ccc(Cl)cc32)c1 [Compound 2-14, (E)-3-(5-Chloro-2-oxo-1,2-dihydro-indol-3-ylidenemethyl)-N-methyl-benzenesulphonamide]
34 | 2.41 ± 1.07 | O=C1Nc2cc(F)ccc2/C1=C\c1cccc(F)c1 [Compound 3-3, (E)-6-Fluoro-3-(3-fluoro-benzylidene)-1,3-dihydro-indol-2-one]

— patent US8877946B2, “Benzylidene-indolinone compounds and their medical use” (National University of Singapore, priority 2011, dated 2014)
